Several values for one entry are separate records, joined by “and”; a condition that tells them apart may be missing. Identical values can stand only once. Inconclusive results and toxic doses are left out.
Tested on: P388 leukemia ip, CD2F1 mice, survival T/C
Test: NCI In Vivo Anticancer Drug Screen. Data for tumor model P388 Leukemia (intraperitoneal) in CD2F1 (CDF1) mice
Settings: endpoint: median survival time, higher = longer survival
Method in brief: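 Mice carrying the transplanted tumor received test compound or vehicle. Survival was recorded in each group, and the value is the treated-group measurement divided by that of the vehicle-treated control group.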

[1] = dose: 50.0 mg/kg/injection, schedule: Q01DX009 (ip), vehicle: saline with Tween-80
[2] = dose: 100.0 mg/kg/injection, schedule: Q01DX009 (ip), vehicle: saline with Tween-80
[3] = dose: 50.0 mg/kg/injection, schedule: Q01DX005 (ip), vehicle: saline
[4] = dose: 100.0 mg/kg/injection, schedule: Q01DX005 (ip), vehicle: saline
[5] = dose: 50.0 mg/kg/injection, schedule: Q01DX005 (ip), vehicle: Klucel (hydroxypropylcellulose) (HPC)
[6] = dose: 100.0 mg/kg/injection, schedule: Q01DX005 (ip), vehicle: Klucel (hydroxypropylcellulose) (HPC)
[7] = dose: 200.0 mg/kg/injection, schedule: Q01DX005 (ip), vehicle: Klucel (hydroxypropylcellulose) (HPC)

CC(N)C(=O)OCN1C(=O)C2C3C=CC(C2C1=O)C1C(=O)N(COC(=O)C(C)N)C(=O)C31 (stereo not drawn)
T/C (dose: 25.0 mg/kg/injection, schedule: Q01DX009 (ip), vehicle: water): 100 % of control
T/C (dose: 50.0 mg/kg/injection, schedule: Q01DX009 (ip), vehicle: water): 100 % of control
T/C (dose: 100.0 mg/kg/injection, schedule: Q01DX009 (ip), vehicle: water): 112 % of control
T/C (dose: 200.0 mg/kg/injection, schedule: Q01DX009 (ip), vehicle: water): 121 % of control

CN(CCO)CC(O)Cn1cnc2c(N)ncnc21 (stereo not drawn)
T/C (dose: 60.0 mg/kg/injection, schedule: Q01DX005 (ip), vehicle: saline): 95 % of control
T/C (dose: 120.0 mg/kg/injection, schedule: Q01DX005 (ip), vehicle: saline): 97 % of control
T/C (dose: 240.0 mg/kg/injection, schedule: Q01DX005 (ip), vehicle: saline): 100 % of control

CC(C)(C)SC(=O)c1ccco1
T/C [1]: 118 % of control
T/C [2]: 114 % of control

CCN(CC)CCOCC1CC2C(C=C1C)C2(C)C (stereo not drawn)
T/C [3]: 107 % of control
T/C [4]: 98 % of control

c1ccc(Nc2nn[nH]n2)cc1
T/C [5]: 109 % of control
T/C [6]: 107 % of control
T/C [7]: 109 % of control

c1cncc(CNCc2cccnc2)c1
T/C (dose: 25.0 mg/kg/injection, schedule: Q01DX009 (ip), vehicle: saline): 94 % of control
T/C (dose: 50.0 mg/kg/injection, schedule: Q01DX009 (ip), vehicle: saline): 110 % of control
T/C (dose: 100.0 mg/kg/injection, schedule: Q01DX009 (ip), vehicle: saline): 97 % of control
T/C (dose: 200.0 mg/kg/injection, schedule: Q01DX009 (ip), vehicle: saline): 94 % of control

CP(=O)(c1ccccc1)c1ccccc1OCCCOCCCOc1ccccc1P(C)(=O)c1ccccc1 (stereo not drawn)
T/C [5]: 99 % of control
T/C [6]: 99 % of control
T/C [7]: 94 % of control

CSC(=N\N=C\c1ccc2c(c1)OCO2)/N=C/N(C)C
T/C (dose: 60.0 mg/kg/injection, schedule: Q01DX005 (ip), vehicle: saline with Tween-80): 98 % of control
T/C (dose: 120.0 mg/kg/injection, schedule: Q01DX005 (ip), vehicle: saline with Tween-80): 97 % of control
T/C (dose: 240.0 mg/kg/injection, schedule: Q01DX005 (ip), vehicle: saline with Tween-80): 94 % of control

N#CC12CCC(CC1)CC2Cl (stereo not drawn)
T/C (dose: 0.5 mg/kg/injection, schedule: Q01DX009 (ip), vehicle: saline with Tween-80): 108 % of control
T/C (dose: 1.0 mg/kg/injection, schedule: Q01DX009 (ip), vehicle: saline with Tween-80): 100 % of control
T/C (dose: 2.0 mg/kg/injection, schedule: Q01DX009 (ip), vehicle: saline with Tween-80): 106 % of control
T/C (dose: 4.0 mg/kg/injection, schedule: Q01DX009 (ip), vehicle: saline with Tween-80): 113 % of control

CCCCCCCCCCCC1=C(O)C(=O)C(Cl)=C(O)C1=O
T/C (dose: 12.5 mg/kg/injection, schedule: Q01DX005 (ip), vehicle: saline with Tween-80): 98 % of control
T/C (dose: 25.0 mg/kg/injection, schedule: Q01DX005 (ip), vehicle: saline with Tween-80): 97 % of control
T/C (dose: 50.0 mg/kg/injection, schedule: Q01DX005 (ip), vehicle: saline with Tween-80): 102 % of control and 90 % of control

S=c1nc[nH]c2c1ncn2C1CCCO1 (stereo not drawn)
T/C (dose: 100.0 mg/kg/injection, schedule: Q04DX003 (ip), vehicle: saline with Tween-80): 100 % of control
T/C (dose: 200.0 mg/kg/injection, schedule: Q04DX003 (ip), vehicle: saline with Tween-80): 118 % of control

CN(C)CCC(C#N)(CCN(C)C)c1ccccc1
T/C [3]: 105 % of control
T/C [4]: 103 % of control
T/C (dose: 200.0 mg/kg/injection, schedule: Q01DX005 (ip), vehicle: saline): 106 % of control

CCOC(=O)c1[nH]cnc1/N=N/c1nc(O)c(C#N)[nH]1
T/C (dose: 60.0 mg/kg/injection, schedule: Q01DX005 (ip), vehicle: suspension in saline): 97 % of control
T/C (dose: 120.0 mg/kg/injection, schedule: Q01DX005 (ip), vehicle: suspension in saline): 100 % of control
T/C (dose: 240.0 mg/kg/injection, schedule: Q01DX005 (ip), vehicle: suspension in saline): 100 % of control

CN(C)c1ccc(C(=N)c2ccc(N(C)C)cc2)cc1 (tested in a mixture with another compound)
T/C (dose: 25.0 mg/kg/injection, schedule: Q01DX009 (ip), vehicle: saline with Tween-80): 100 % of control
T/C [1]: 95 % of control
T/C [2]: 100 % of control

CO[C@H]1/C=C/O[C@@]2(C)Oc3c(C)c(O)c4c(O)c(c(/C=N/N5CCCN(Cc6ccccc6)CC5)c(O)c4c3C2=O)NC(=O)/C(C)=C\C=C\[C@H](C)[C@H](O)C(C)[C@@H](O)C(C)[C@H](OC(C)=O)[C@@H]1C (stereo partly drawn)
T/C (dose: 25.0 mg/kg/injection, schedule: Q01DX009 (ip), vehicle: suspension in saline): 107 % of control

Source: PubChem BioAssay AID330 (DTP/NCI, 2004)
